One assay deals with S. aureus (ATCC 29213). As to the kind of experiment: Bacterial assay: MIC against S. aureus. The assay is classed as cell-based, Staphylococcus aureus. The settings on record: for minimal inhibitory concentration (MIC): S. aureus ATCC 29213; for MIC: Staphylococcus aureus, ATCC29213, read-out: minimal inhibitory concentration (MIC).
The next assay concerns S. pyogenes (ATCC 51339). As to the kind of experiment: Bacterial assay: MIC against S. pyogenes. Type of assay: cell-based, Streptococcus pyogenes. The settings on record: for MIC: Streptococcus pyogenes, ATCC51339, read-out: minimal inhibitory concentration (MIC).

The values that follow come from patent US20170260178A1 (SPERO GYRASE, INC., priority 2012, published 2017).

Values after ≈ are worked out from the molar mass of the structure shown. A value given as a limit tells only on which side of the number the result lay.

As to “1-ethyl-3-[7-[4-(4-ethylpiperazin-1-yl)pyridin-2-yl]-5-[2-(1-hydroxy-1-methyl-ethyl)pyrimidin-5-yl]-1,3-benzothiazol-2-yl]urea [Compound 79]”, the “minimal inhibitory concentration (MIC)” value in the assay with S. aureus (ATCC 29213) and in the assay with S. pyogenes (ATCC 51339) (S. pyogenes ATCC 51339) was 2 µg/mL each time.
For `CCNC(=O)Nc1nc2cc(-c3cnc(C(C)(C)O)nc3)cc(-c3cc(CN4CC(C)(O)C4)ccn3)c2s1` [Compound 2, 1-ethyl-3-[7-[4-[(3-hydroxy-3-methyl-azetidin-1-yl)methyl]-2-pyridyl]-5-[2-(1-hydroxy-1-methyl-ethyl)pyrimidin-5-yl]-1,3-benzothiazol-2-yl]urea], the MIC in the assay with S. aureus (ATCC 29213) and in the assay with S. pyogenes (ATCC 51339) was at most 1 µg/mL in each case.
As to `CCNC(=O)Nc1nc2cc(-c3cnc(C(C)(C)O)nc3)c(OCC3CCCO3)cc2s1` (stereo not shown) [Compound 3, 1-ethyl-3-[5-[2-(1-hydroxy-1-methyl-ethyl)pyrimidin-5-yl]-6-(tetrahydrofuran-2-ylmethoxy)-1,3-benzothiazol-2-yl]urea], the MIC with S. aureus (ATCC 29213) and in the assay with S. pyogenes (ATCC 51339) was at most 1 µg/mL throughout.
Take `CCNC(=O)Nc1nc2cc(-c3ccc(C(O)c4cccnc4)nc3)c(F)cc2s1` (stereo not shown) [Compound 4, 1-ethyl-3-[6-fluoro-5-[6-[hydroxy(3-pyridyl)methyl]-3-pyridyl]-1,3-benzothiazol-2-yl]urea]: the MIC in the assay on S. aureus (ATCC 29213) and with S. pyogenes (ATCC 51339) was at most 1 µg/mL each time.
On to `CC(C)(O)c1ncc(-c2cc(-c3ccccn3)c3sc(NC(=O)NCCO)nc3c2)cn1` [Compound 5, 1-(2-hydroxyethyl)-3-[5-[2-(1-hydroxy-1-methyl-ethyl)pyrimidin-5-yl]-7-(2-pyridyl)-1,3-benzothiazol-2-yl]urea], for which the MIC in the assay on S. aureus (ATCC 29213) is 16 µg/mL (≈ 35.5 µM); in the assay on S. pyogenes (ATCC 51339), at most 1 µg/mL.
For `CCNC(=O)Nc1nc2cc(-n3cc(C(C)O)nn3)cc(-c3ccccn3)c2s1` (stereo not shown) [Compound 9, 1-ethyl-3-[5-[4-(1-hydroxyethyl)triazol-1-yl]-7-(2-pyridyl)-1,3-benzothiazol-2-yl]urea] the same measures were 8 µg/mL (≈ 19.5 µM) and at most 1 µg/mL.
As for `CCNC(=O)Nc1nc2cc(-n3cnc(C(C)(C)O)c3)cc(-c3ccccn3)c2s1` [Compound 11, 1-ethyl-3-[5-[4-(1-hydroxy-1-methyl-ethyl)imidazol-1-yl]-7-(2-pyridyl)-1,3-benzothiazol-2-yl]urea], the MIC in the assay with S. aureus (ATCC 29213) was 4 µg/mL (≈ 9.47 µM); in the assay with S. pyogenes (ATCC 51339), at most 1 µg/mL.
As to `CCNC(=O)Nc1nc2cc(-c3cnc(C(C)(C)O)nc3)cc(OC)c2s1` [Compound 12, 1-ethyl-3-[5-[2-(1-hydroxy-1-methyl-ethyl)pyrimidin-5-yl]-7-methoxy-1,3-benzothiazol-2-yl]urea], the MIC in the assay with S. aureus (ATCC 29213) and with S. pyogenes (ATCC 51339) was at most 1 µg/mL each time.
Consider `CCNC(=O)Nc1nc2cc(-c3cnc(C(C)(C)O)nc3)cc(COC)c2s1` [Compound 13, 1-ethyl-3-[5-[2-(1-hydroxy-1-methyl-ethyl)pyrimidin-5-yl]-7-(methoxymethyl)-1,3-benzothiazol-2-yl]urea], for which the figures for the MIC with S. aureus (ATCC 29213) and with S. pyogenes (ATCC 51339) were at most 1 µg/mL and 2 µg/mL (≈ 4.98 µM), respectively.
The like results for `CCNC(=O)Nc1nc2cc(-c3cnc(C(C)O)nc3)cc(OCc3ccc(C)nc3)c2s1` (stereo not shown) [Compound 14, 1-ethyl-3-[5-[2-(1-hydroxyethyl)pyrimidin-5-yl]-7-[(6-methyl-3-pyridyl)methoxy]-1,3-benzothiazol-2-yl]urea] were, in that order, at most 1 µg/mL and at most 1 µg/mL.
In the case of `CCNC(=O)Nc1nc2cc(-c3cnc(C(C)O)nc3)cc(-c3cc(C[S+](C)[O-])ccn3)c2s1` (stereo not shown) [Compound 16, 1-ethyl-3-[5-[2-(1-hydroxyethyl)pyrimidin-5-yl]-7-[4-(methylsulfinylmethyl)-2-pyridyl]-1,3-benzothiazol-2-yl]urea], the values for the MIC with S. aureus (ATCC 29213) and in the assay on S. pyogenes (ATCC 51339) were 2 µg/mL (≈ 4.03 µM) and at most 1 µg/mL, respectively.
The like results for `CCNC(=O)Nc1nc2cc(-c3cnc(C(C)OC(=O)N4CCN(C)CC4)nc3)cc(-c3ccccn3)c2s1` (stereo not shown) [Compound 18, 1-[5-[2-(ethylcarbamoylamino)-7-(2-pyridyl)-1,3-benzothiazol-5-yl]pyrimidin-2-yl]ethyl 4-methylpiperazine-1-carboxylate] were, in that order, at most 1 µg/mL and at most 1 µg/mL.
Turning to `CCNC(=O)Nc1nc2cc(-c3cnc(C(C)(C)OC(=O)CCC(=O)OC)nc3)cc(-c3ccccn3)c2s1` [Compound 20, O4-[1-[5-[2-(ethylcarbamoylamino)-7-(2-pyridyl)-1,3-benzothiazol-5-yl]pyrimidin-2-yl]-1-methyl-ethyl] O1-methyl butanedioate], the MIC in the assay on S. aureus (ATCC 29213) was 2 µg/mL (≈ 3.65 µM); with S. pyogenes (ATCC 51339), at most 1 µg/mL.
For `CCNC(=O)Nc1nc2cc(-c3cnc(C(C)(C)OC(=O)CCC(=O)O)nc3)cc(-c3ccccn3)c2s1` [Compound 21, 4-[1-[5-[2-(ethylcarbamoylamino)-7-(2-pyridyl)-1,3-benzothiazol-5-yl]pyrimidin-2-yl]-1-methyl-ethoxy]-4-oxo-butanoic acid] the same measures were 4 µg/mL (≈ 7.48 µM) and at most 1 µg/mL.
The like results for `CCNC(=O)Nc1nc2cc(-c3ccc(C(O)c4nccn4C)nc3)cc(-c3ccccn3)c2s1` (stereo not shown) [Compound 24, 1-ethyl-3-[5-[6-[hydroxy-(1-methylimidazol-2-yl)methyl]-3-pyridyl]-7-(2-pyridyl)-1,3-benzothiazol-2-yl]urea] were, in that order, at most 1 µg/mL and at most 1 µg/mL.
As for `CCNC(=O)Nc1nc2cc(-c3cnc(C(C)(C)O)nc3)cc(-c3ccc(CN4CCOCC4)cn3)c2s1` [Compound 25, 1-ethyl-3-[5-[2-(1-hydroxy-1-methyl-ethyl)pyrimidin-5-yl]-7-[5-(morpholinomethyl)-2-pyridyl]-1,3-benzothiazol-2-yl]urea], the MIC in the assay on S. aureus (ATCC 29213) and with S. pyogenes (ATCC 51339) was at most 1 µg/mL in each case.
In the case of `CCNC(=O)Nc1nc2cc(-c3cnc(C(C)(C)O)nc3)cc(-c3cc(CN4CCCC4)ccn3)c2s1` [Compound 26, 1-ethyl-3-[5-[2-(1-hydroxy-1-methyl-ethyl)pyrimidin-5-yl]-7-[4-(pyrrolidin-1-ylmethyl)-2-pyridyl]-1,3-benzothiazol-2-yl]urea], the MIC in the assay with S. aureus (ATCC 29213) and in the assay on S. pyogenes (ATCC 51339) was at most 1 µg/mL throughout.
With `CCNC(=O)Nc1nc2cc(-c3cnc(C(C)(C)O)nc3)cc(-c3cc(CN4CCC(O)C4)ccn3)c2s1` (stereo not shown) [Compound 29, 1-ethyl-3-[5-[2-(1-hydroxy-1-methyl-ethyl)pyrimidin-5-yl]-7-[4-[(3-hydroxypyrrolidin-1-yl)methyl]-2-pyridyl]-1,3-benzothiazol-2-yl]urea], the MIC in the assay on S. aureus (ATCC 29213) and in the assay on S. pyogenes (ATCC 51339) was at most 1 µg/mL throughout.
For the compound `CCNC(=O)Nc1nc2cc(-c3cnc(C(C)(C)O)nc3)cc(-c3cc(C(C)N4CCOCC4)ccn3)c2s1` (stereo not shown) [Compound 33, 1-ethyl-3-[5-[2-(1-hydroxy-1-methyl-ethyl)pyrimidin-5-yl]-7-[4-(1-morpholinoethyl)-2-pyridyl]-1,3-benzothiazol-2-yl]urea], the MIC in the assay with S. aureus (ATCC 29213) and in the assay with S. pyogenes (ATCC 51339) was at most 1 µg/mL each time.
`CCNC(=O)Nc1nc2cc(-c3cnc(C(C)(C)O)nc3)cc(-c3cc(CN4CCC(F)(F)C4)ccn3)c2s1` [Compound 34, 1-[7-[4-[(3,3-difluoropyrrolidin-1-yl)methyl]-2-pyridyl]-5-[2-(1-hydroxy-1-methyl-ethyl)pyrimidin-5-yl]-1,3-benzothiazol-2-yl]-3-ethyl-urea]: the MIC in the assay with S. aureus (ATCC 29213) and in the assay on S. pyogenes (ATCC 51339) was at most 1 µg/mL each time.
`CCNC(=O)Nc1nc2cc(-c3cnc(C(C)(C)O)nc3)cc(-c3cc(CN4CCCC(F)(F)C4)ccn3)c2s1` [Compound 37, 1-[7-[4-[(3,3-difluoro-1-piperidyl)methyl]-2-pyridyl]-5-[2-(1-hydroxy-1-methyl-ethyl)pyrimidin-5-yl]-1,3-benzothiazol-2-yl]-3-ethyl-urea]: the MIC in the assay with S. aureus (ATCC 29213) and with S. pyogenes (ATCC 51339) was at most 1 µg/mL throughout.
As for `CCNC(=O)Nc1nc2cc(-c3ccc(C(C)(C)O)nc3)c(O)c(CN(C)C)c2s1` [Compound 41], the MIC in the assay on S. aureus (ATCC 29213) and with S. pyogenes (ATCC 51339) was 16 µg/mL (≈ 37.2 µM) in each case.
For the compound `CCNC(=O)Nc1nc2cc(-c3cnc(C(C)(C)O)nc3)cc(-c3cc(CN4CC[C@@H](OC)C4)ccn3)c2s1` [Compound 42, 1-ethyl-3-[5-[2-(1-hydroxy-1-methyl-ethyl)pyrimidin-5-yl]-7-[4-[[(3R)-3-methoxypyrrolidin-1-yl]methyl]-2-pyridyl]-1,3-benzothiazol-2-yl]urea], the MIC in the assay on S. aureus (ATCC 29213) and in the assay on S. pyogenes (ATCC 51339) was at most 1 µg/mL throughout.
As for `CCNC(=O)Nc1nc2cc(-c3ccc(C(C)(C)O)nc3)c(O)c(CN3CCOCC3)c2s1` [Compound 44, 1-ethyl-3-[6-hydroxy-5-[6-(1-hydroxy-1-methyl-ethyl)-3-pyridyl]-7-(morpholinomethyl)-1,3-benzothiazol-2-yl]urea], the MIC in the assay with S. aureus (ATCC 29213) and in the assay on S. pyogenes (ATCC 51339) was 16 µg/mL (≈ 33.9 µM) each time.
`CCNC(=O)Nc1nc2cc(-c3cnc(N4CCC(C)(C(=O)O)CC4)nc3)cc(-c3ccc(C(C)(C)O)cn3)c2s1` [Compound 99, 1-[5-[2-(ethylcarbamoylamino)-7-[5-(1-hydroxy-1-methy-ethyl)-2-pyridyl]-1,3-benzothiazol-5-yl]pyrimidin-2-yl]-4-methyl-piperidine-4-carboxylic acid]: the “minimal inhibitory concentration (MIC)” value in the assay with S. aureus (ATCC 29213) came out at 2 µg/mL (≈ 3.47 µM).
On to `CCNC(=O)Nc1nc2cc(-c3cnc(C4(O)CNC4)nc3)cc(-c3ccccn3)c2s1` [Compound 163, 1-ethyl-3-[5-[2-(3-hydroxyazetidin-3-yl)pyrimidin-5-yl]-7-(2-pyridyl)-1,3-benzothiazol-2-yl]urea], for which, in the assay on S. pyogenes (ATCC 51339), the MIC worked out at 8 µg/mL (≈ 17.9 µM).
Consider `CCNC(=O)Nc1nc2cc(-c3cnc(C(C)O)nc3)c(N3CCOCC3)cc2s1` (stereo not shown) [Compound 194, 1-ethyl-3-[5-[2-[1-hydroxyethyl]pyrimidin-5-yl]-6-morpholino-1,3-benzothiazol-2-yl]urea], for which the MIC in the assay on S. aureus (ATCC 29213) worked out at 16 µg/mL (≈ 37.3 µM).
On the same count and under the same terms, the figure for `CCNC(=O)Nc1nc2cc(-c3cnc(C(C)(C)O)nc3)cc(-c3cc(CNCCO)ccn3)c2s1` [Compound 196, 1-ethyl-3-[7-[4-[(2-hydroxyethylamino)methyl]-2-pyridyl]-5-[2-(1-hydroxy-1-methyl-ethyl)pyrimidin-5-yl]-1,3-benzothiazol-2-yl]urea] is 2 µg/mL (≈ 3.94 µM).
